Assay results from ChEMBL document CHEMBL1201862, “PubChem BioAssay data set” (2004).
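Cells were grown in 96-well plates and exposed to each compound for 48 hours at five concentrations; endpoints were interpolated linearly between bracketing concentrations, or set to the highest concentration if not reached. GI50 = concentration required for 50% inhibition of growth.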 Activity calls are given as the source filed them. No stated cut-off is given here; in the data, active = GI50 up to about 1.1 µM and inactive = higher.

Key:
Assay in all cases: NCI-60 cell line screen, 48 h
HCT-116 = tested on: HCT-116
NCI-H522 = tested on: NCI-H522
K562 = tested on: K562
RXF 393 = tested on: RXF 393
MOLT-4 = tested on: MOLT-4
OVCAR-4 = tested on: OVCAR-4
TK-10 = tested on: TK-10
UACC-257 = tested on: UACC-257
NCI-H460 = tested on: NCI-H460
SK-OV-3 = tested on: SK-OV-3
HCT-15 = tested on: HCT-15
SR = tested on: SR
COLO 205 = tested on: COLO 205
SNB-19 = tested on: SNB-19
HL-60 = tested on: HL-60
SF-295 = tested on: SF-295
UACC-62 = tested on: UACC-62
SF-268 = tested on: SF-268
SNB-75 = tested on: SNB-75
SK-MEL-2 = tested on: SK-MEL-2

SMILES | GI50 (HCT-116) | GI50 (NCI-H522) | GI50 (K562) | GI50 (RXF 393) | GI50 (MOLT-4) | GI50 (OVCAR-4) | GI50 (TK-10) | GI50 (UACC-257) | GI50 (NCI-H460) | GI50 (SK-OV-3) | GI50 (HCT-15) | GI50 (SR) | GI50 (COLO 205) | GI50 (SNB-19) | GI50 (HL-60) | GI50 (SF-295) | GI50 (UACC-62) | GI50 (SF-268) | GI50 (SNB-75) | GI50 (SK-MEL-2)
COC(=O)c1c(C)c2c(c(C)c1O)OC(=O)c1c(C)cc(O)c(C=O)c1O2 | > 100 µM (inactive) | > 100 µM (inactive) | > 100 µM (inactive) | > 100 µM (inactive) | > 100 µM (inactive) | > 100 µM (inactive) | > 100 µM (inactive) | > 100 µM (inactive) | > 100 µM (inactive) | 20 µM (inactive) | > 100 µM | > 100 µM (inactive) | > 100 µM (inactive) | > 100 µM (inactive) | > 100 µM (inactive) | > 100 µM (inactive) | 45.3 µM (inactive) | > 100 µM (inactive) |  | 
O=C1C=CC(=O)c2c1ccc1c3ccccc3n(Cc3ccc([N+](=O)[O-])cc3)c21 | > 100 µM (inactive) | 26.6 µM (inactive) | 19.7 µM (inactive) | > 100 µM (inactive) | 20.3 µM (inactive) | > 100 µM (inactive) | > 100 µM (inactive) | > 100 µM (inactive) | > 100 µM (inactive) | > 100 µM (inactive) | 70.1 µM | 13.8 µM (inactive) | > 100 µM (inactive) | > 100 µM (inactive) | 14 µM (inactive) | > 100 µM (inactive) | > 100 µM (inactive) | > 100 µM (inactive) | > 100 µM (inactive) | 
CC(=O)N1CCN(C=S)CC1 | > 100 µM (inactive) | > 100 µM (inactive) | > 100 µM (inactive) | > 100 µM (inactive) | > 100 µM (inactive) | > 100 µM (inactive) | > 100 µM (inactive) | > 100 µM (inactive) | > 100 µM (inactive) | > 100 µM (inactive) | > 100 µM | > 100 µM (inactive) | > 100 µM (inactive) | > 100 µM (inactive) | > 100 µM (inactive) | > 100 µM (inactive) | > 100 µM (inactive) | > 100 µM (inactive) | > 100 µM (inactive) | 
Cc1ccc(-c2cn3c(nc4ccccc43)c(/C=C/c3ccco3)n2)cc1 | > 100 µM (inactive) |  | 37.7 µM (inactive) | > 100 µM (inactive) |  | 56.8 µM (inactive) | > 100 µM (inactive) | 82.6 µM (inactive) | 58.1 µM (inactive) | > 100 µM (inactive) | > 100 µM | 19.6 µM (inactive) | 61.7 µM (inactive) | > 100 µM (inactive) | 22.2 µM (inactive) |  | > 100 µM (inactive) | 59.7 µM (inactive) | > 100 µM (inactive) | 22.1 µM (inactive)
CCOC(=O)C1=C(C)N(NC(N)=O)C2(N)N(NC(N)=O)C(C)=C(C(=O)OCC)C12C#N (configuration not stated) | > 100 µM (inactive) | > 100 µM (inactive) | > 100 µM (inactive) |  | > 100 µM (inactive) | > 100 µM (inactive) |  | > 100 µM (inactive) | > 100 µM (inactive) | > 100 µM (inactive) | > 100 µM | > 100 µM (inactive) |  | > 100 µM (inactive) |  | > 100 µM (inactive) | > 100 µM (inactive) | > 100 µM (inactive) | > 100 µM (inactive) | > 100 µM (inactive)
CCOP(=O)(OCC)c1ccc(=O)[nH]c1-c1cccs1 | > 100 µM (inactive) | > 100 µM (inactive) | > 100 µM (inactive) | > 100 µM (inactive) | > 100 µM (inactive) | > 100 µM (inactive) | > 100 µM (inactive) | > 100 µM (inactive) | > 100 µM (inactive) | > 100 µM (inactive) | > 100 µM | > 100 µM (inactive) | > 100 µM (inactive) | > 100 µM (inactive) |  | > 100 µM (inactive) | > 100 µM (inactive) | > 100 µM (inactive) | > 100 µM (inactive) | > 100 µM (inactive)
CC(=O)Oc1ccc2cc(Oc3ccccc3)c(=O)oc2c1 | > 100 µM (inactive) | 30.5 µM (inactive) |  | > 100 µM (inactive) |  | 76.9 µM (inactive) | 64.6 µM (inactive) | > 100 µM (inactive) | 90.8 µM (inactive) |  | 53.3 µM | > 100 µM (inactive) |  | 93.5 µM (inactive) | > 100 µM (inactive) | > 100 µM (inactive) |  | > 100 µM (inactive) | 90.6 µM (inactive) | 
CCc1ccc2c(c1)/C(=C1/Nc3ccccc3/C1=N/O)C(=O)N2 | 3.27 µM (inactive) | 3.43 µM (inactive) | 4.5 µM (inactive) | 2.81 µM (inactive) | 4.3 µM (inactive) | 6.67 µM (inactive) | 11.5 µM (inactive) | 15.2 µM (inactive) | 5.11 µM (inactive) | 2.44 µM (inactive) | 3.53 µM | 3.29 µM (inactive) | 8.83 µM (inactive) | 14.7 µM (inactive) |  | 6.25 µM (inactive) | 11 µM (inactive) | 8.22 µM (inactive) | 11.8 µM (inactive) | 4.38 µM (inactive)
COc1c(-c2ccc(O)c(O)c2)oc2c(O)c(O)cc(O)c2c1=O | 40.4 µM (inactive) | 32.1 µM (inactive) | 20.8 µM (inactive) |  | 28.6 µM (inactive) | 50.6 µM (inactive) | > 100 µM (inactive) | > 100 µM (inactive) | 55.6 µM (inactive) | 85.9 µM (inactive) | 85.5 µM | 22 µM (inactive) | > 100 µM (inactive) | > 100 µM (inactive) | > 10 µM (inactive) | 39.1 µM (inactive) | 51.1 µM (inactive) |  |  | > 100 µM (inactive)
CN(CCNC(=O)c1n[nH]c2c1Cc1ccccc1-2)CCNC(=O)c1n[nH]c2c1Cc1ccccc1-2 | 16.2 µM (inactive) | 17.5 µM (inactive) | 18 µM (inactive) | 15.3 µM (inactive) | 19.4 µM (inactive) | 15.9 µM (inactive) | 19.1 µM (inactive) | 18.8 µM (inactive) | 18.1 µM (inactive) | 16.5 µM (inactive) | 18.4 µM | 19.5 µM (inactive) | 17.3 µM (inactive) | 16.8 µM (inactive) | 21.1 µM (inactive) | 16.6 µM (inactive) | 19 µM (inactive) | 19.5 µM (inactive) | 12.5 µM (inactive) | 
COC(=O)C1CCC(=O)N1C(c1cc(OC)c(OC)c(OC)c1)c1cc(OC)c(OC)c(OC)c1 (configuration not stated) | > 100 µM (inactive) | > 100 µM (inactive) | > 100 µM (inactive) |  | > 100 µM (inactive) |  | > 100 µM (inactive) | > 100 µM (inactive) | > 100 µM (inactive) | > 100 µM (inactive) | > 100 µM | > 100 µM (inactive) |  | > 100 µM (inactive) | > 100 µM (inactive) | > 100 µM (inactive) | > 100 µM (inactive) | > 100 µM (inactive) | > 100 µM (inactive) | > 100 µM (inactive)
CCOC(=O)NC(Nc1ccc(S(=O)(=O)Nc2nc(C)cc(C)n2)cc1)(C(=O)OCC)C(F)(F)F (configuration not stated) | > 100 µM (inactive) |  | > 100 µM (inactive) | > 100 µM (inactive) | > 100 µM (inactive) | > 100 µM (inactive) | 72.9 µM (inactive) |  | > 100 µM (inactive) | > 100 µM (inactive) | > 100 µM | 5.33 µM (inactive) | > 100 µM (inactive) | > 100 µM (inactive) | > 100 µM (inactive) | > 100 µM (inactive) | > 100 µM (inactive) | > 100 µM (inactive) | > 100 µM (inactive) | > 100 µM (inactive)
CCCCCC(=O)C(C)C1=Nc2nnc(CCCCCCCc3nnc4n3C(=O)C(C(C)C(=O)CCCCC)=N4)n2C1=O (configuration not stated) | > 100 µM (inactive) | > 100 µM (inactive) | > 100 µM (inactive) | > 100 µM (inactive) | > 100 µM (inactive) | > 100 µM (inactive) | > 100 µM (inactive) | > 100 µM (inactive) | > 100 µM (inactive) | > 100 µM (inactive) | > 100 µM | > 100 µM (inactive) | > 100 µM (inactive) | > 100 µM (inactive) | > 100 µM (inactive) | > 100 µM (inactive) | > 100 µM (inactive) | > 100 µM (inactive) | > 100 µM (inactive) | 
NC(=O)c1ncn2c(=O)n(CCl)nnc12 | 28.2 µM (inactive) | 96.8 µM (inactive) | 72.6 µM (inactive) | > 100 µM (inactive) | > 100 µM (inactive) | > 100 µM (inactive) | 63.1 µM (inactive) | > 100 µM (inactive) | 51.6 µM (inactive) | 83 µM (inactive) | 41.4 µM | 15.4 µM (inactive) | 50.2 µM (inactive) | > 100 µM (inactive) |  | > 100 µM (inactive) | 76 µM (inactive) | > 100 µM (inactive) | > 100 µM (inactive) | > 100 µM (inactive)
O=C1[C@@H]2C(c3cccc([N+](=O)[O-])c3)=NO[C@@H]2C(=O)N1c1ccc(Cc2ccc(N3C(=O)[C@H]4C(c5cccc([N+](=O)[O-])c5)=NO[C@H]4C3=O)cc2)cc1 | > 100 µM (inactive) | > 100 µM (inactive) | > 100 µM (inactive) | > 100 µM (inactive) | > 100 µM (inactive) | > 100 µM (inactive) | > 100 µM (inactive) | > 100 µM (inactive) | > 100 µM (inactive) | > 10 µM (inactive) | > 100 µM | > 100 µM (inactive) | > 100 µM (inactive) |  |  |  | > 100 µM (inactive) | > 10 µM (inactive) | > 100 µM (inactive) | > 100 µM (inactive)
